In brackets after ≈: the same amount, converted by molar mass.
Key:
[1] = test system: S. epidermidis; experiment: MIC against S. epidermidis (30 species); type: cell-based
[2] = test system: CA-MRSA; experiment: MIC against CA-MRSA; type: cell-based, Staphylococcus aureus; conditions: N 30
[3] = test system: Immortalized human meibomian gland epithelial cells (HMGECs); experiment: HMGEC lysosome and neutral lipid accumulation, differentiation and proliferation; type: cell-based
Procedure: EXAMPLE. Immortalized human meibomian gland epithelial cells (HMGECs) are cultured in the presence of vehicle or test compound, such as Soli (2, 10, or 20 μg/ml) for 1 to 7 days under proliferating (keratinocyte serum-free medium; KSFM) or differentiating (DMEM/F12 plus 10% fetal bovine serum) conditions. A positive control (epidermal growth factor and bovine pituitary extract for proliferation; Azi for differentiation) and a negative control (media only) are included with the experiments. Additional details are described in JAMA Ophthalmol 132(2): 226-228 (Feb. 1, 2014) and Current Eye Research, 1-6 (2017), each of which is incorporated herein by reference.
HMGECs are evaluated for cell number, neutral lipid content (LipidTox) and lysosome accumulation (LysoTracker). […] Strong lysosomal effects are observed with the 10 μg/ml dose of Soli (relative stimulation=30), on the first day of dosing, and those effects are statistically different (p<0.01) from the control group (relative stimulation=13). In contrast, the 10 μg/m1Azi dose is not statistically different from the control group (relative stimulation=18) until day 3. […] Compounds described herein, such a Soli, affect lysosome and lipid accumulation and differentiation of HMGECs. The effect of Soli on lysosome appearance is faster than that of Azi.

[4] = test system: Haemophilus influenzae; experiment: MIC against Haemophilus influenzae; type: cell-based
[5] = test system: Peptostreptococcus spp.; experiment: MIC against Peptostreptococcus spp.; type: cell-based; conditions: N 10
[6] = test system: Mycoplasma hominis; experiment: MIC against Mycoplasma hominis; type: cell-based; conditions: N 13
[7] = test system: MSSA; experiment: MIC against MSSA (31 species); type: cell-based
[8] = test system: Streptococci (Groups C, F, G); experiment: MIC against Streptococci (Groups C, F, G); type: cell-based; conditions: N 185
[9] = test system: S. pneumoniae; experiment: MIC against S. pneumoniae (30 species); type: cell-based
[10] = Corneal permeability, Franz-Cell Diffusion Apparatus; type: in vitro ADME, bovine (calf)
Procedure: EXAMPLE. Corneal Permeability. Corneal permeability is determined using conventional protocols. Briefly, corneal permeability is determined on freshly excised bovine (calf) cornea using a Franz-Cell Diffusion Apparatus generally with n=3/group. Freshly excised calf cornea are stored until use in hydrating solution containing glutathione and buffer. The Apparatus includes a donor chamber on the top where a predetermined volume of the formulation is pipetted and a jacketed receptor cell with a sampling side arm. The joint between the donor and receptor cell is upward-convex, mimicking the shape of the cornea. The corneal membrane is placed on the ball joint with the cornea facing the donor chamber. The Apparatus is clamped to secure the cells with the donor and receptor chambers aligned. […] The volume is recorded. […] Test samples are added in rapid succession by depositing 200 μL of the formulation into each donor chamber using a calibrated pipet and the times recorded. […] Flux can be calculated by the formula: J=Q/(A·t), where Q is the quantity (micrograms) of compound traversing the membrane in time t (minutes), and A is the area of exposed membrane in cm^2. […] After completion of the diffusion, corneas are weighed to determine the quantity of bound test compound in the cornea, and the corneal thicknesses of each cornea is measured at the point of diffusion (the center) using Vernier calipers. […]

[11] = test system: Staphylococcus aureus; experiment: MIC against Staphylococcus aureus; type: cell-based; conditions: N 201
[12] = test system: L. monocytogenes and S. aureus; experiment: Antibacterial activity at acidic pH compared with Azi; type: cell-based; conditions: including L. monocytogenes and S. aureus
[13] = MIC in the presence of serum; type: cell-based; conditions: 10% serum
[14] = test system: MSRA; experiment: MIC against MSRA (30 species); type: cell-based
[15] = test system: Corynebacterium spp.; experiment: MIC against Corynebacterium spp.; type: cell-based; conditions: N 10
[16] = Protein binding in plasma; type: in vitro ADME
[17] = test system: P. acnes; experiment: MIC against P. acnes; type: cell-based

Compound: CC[C@H]1OC(=O)[C@@](C)(F)C(=O)[C@H](C)[C@@H](O[C@@H]2O[C@H](C)C[C@H](N(C)C)[C@H]2O)[C@](C)(OC)C[C@@H](C)C(=O)[C@H](C)[C@H]2N(CCCCn3cc(-c4cccc(N)c4)nn3)C(=O)O[C@]12C [Solithromycin, solithromycin]
- I = intermediate susceptibility [1]: 3%
- MIC50 [1]: 0.015 µg/mL (≈ 0.0178 µM)
- MIC90 [1]: 32 µg/mL (≈ 37.9 µM)
- NS = not susceptible [1]: 17%
- S = susceptible [1]: 80%
- MIC50 [2]: 0.12 µg/mL (≈ 0.142 µM)
- MIC90 [2]: 0.12 µg/mL (≈ 0.142 µM)
- MIC Range [2]: 0.06 to 0.12 µg/mL
- lysosomal effects, relative stimulation ([3]; 10 μg/ml dose, first day of dosing, LysoTracker): 30
- accumulation of neutral lipids and lysosomes in HMGECs ([3]; 2, 10 or 20 μg/ml, 1 to 7 days): rapid and dose-dependent increase
- proliferation of HMGECs ([3]; 7-day dosing period): does not cause unwanted proliferation
- MIC90 ([4]; Haemophilus influenzae (100 strains)): 2 µg/mL (≈ 2.37 µM)
- MIC50 ([4]; Haemophilus influenzae, N 100): 1 µg/mL (≈ 1.18 µM)
- MIC90 ([4]; Haemophilus influenzae, N 100): 2 µg/mL (≈ 2.37 µM)
- MIC Range ([4]; Haemophilus influenzae, N 100): 0.12 to 4 µg/mL
- MIC50 [5]: 0.06 µg/mL (≈ 0.071 µM)
- MIC90 [5]: 0.25 µg/mL (≈ 0.296 µM)
- MIC Range [5]: ≤0.03-0.25^ μg/mL
- MIC50 [6]: 0.004 µg/mL (≈ 0.00473 µM)
- MIC90 [6]: 0.008 µg/mL (≈ 0.00947 µM)
- MIC Range [6]: 0.002 to 0.008 µg/mL
- I = intermediate susceptibility [7]: 0%
- MIC50 [7]: 0.015 µg/mL (≈ 0.0178 µM)
- MIC90 [7]: 0.03 µg/mL (≈ 0.0355 µM)
- MIC Range [7]: 0.004 to 64 µg/mL
- NS = not susceptible [7]: 6%
- S = susceptible [7]: 94%
- MIC50 [8]: ≤0.03 µg/mL
- MIC90 [8]: ≤0.03 µg/mL
- MIC Range [8]: ≤0.03-0.25^ μg/mL
- I = intermediate susceptibility [9]: 0%
- MIC50 [9]: 0.002 µg/mL (≈ 0.00237 µM)
- MIC90 [9]: 0.12 µg/mL (≈ 0.142 µM)
- MIC Range [9]: ≤0.001-0.25 ^ μg/ml
- NS = not susceptible [9]: 0%
- S = susceptible [9]: 100%
- time after administration at which compound is observed in receptor fluid ([10]; bovine cornea, Franz cell): ≤ 1 h
- concentration in receptor fluid ([10]; within 1 h of administration): > 1000 ng/mL
- MIC50 [11]: 0.12 µg/mL (≈ 0.142 µM)
- MIC90 [11]: >16 µg/mL
- activity at acidic pH relative to Azi [12]: 100-200 fold
- change in MIC in the presence of serum [13]: 2 fold
- I = intermediate susceptibility [14]: 0%
- MIC50 [14]: 0.03 µg/mL (≈ 0.0355 µM)
- MIC90 [14]: 64 µg/mL (≈ 75.7 µM)
- NS = not susceptible [14]: 30%
- S = susceptible [14]: 70%
- MIC50 [15]: 0.015 µg/mL (≈ 0.0178 µM)
- MIC90 [15]: 0.5 µg/mL (≈ 0.592 µM)
- MIC Range [15]: ≤0.008-16 ^ μg/mL
- protein binding in plasma [16]: 86%
- MIC 50% ([17]; P. acnes): 0.015 µg/mL (≈ 0.0178 µM)
- MIC 90% ([17]; P. acnes (51 species)): 0.06 µg/mL (≈ 0.071 µM)
- MIC Range ([17]; P. acnes (51 species)): ≤0.002 to 0.25 µg/mL
